Measurements published in patent publication US5968753A, “Positive and positive/negative cell selection mediated by peptide release” (Nexell Therapeutics, Inc., priority 1995, dated 1999).
Each block holds one molecule with its values, some of them ahead of it. Ends that are not written are not given here.

Assays:
561 antibody [1] = assay: Chemical reagents as enhancers of peptide-dependant release of CD34+ cells from the 561 antibody (FACS assay); assay type: cell-based
Description: The ability of chemical reagents to enhance peptide-dependant release of captured CD34+ cells from the 561 antibody was examined. […] Previous studies indicated a requirement for low pH (about pH4) for effective cell release. Since long-term viability of the low pH-released cells was not known, conditions which could alter the pH to a more neutral value (about pH5-7) were desirable. Reagents which were known to affect electrostatic and hydrogen bonding interactions of proteins were tested in addition to excluded-volume polymers.

561 antibody [2] = assay: KG1a or tHL60 cell-based FACS assay: release of prebound 561 antibody; conditions: for functional release activity: crude peptide
Description: Five peptides representing hexapeptides selected from biopannings were synthesized and tested for their ability to serve as release agents in the KG1a or tHL60 cell-based FACS assay.
HPLC-purified peptides 561C and D were tested in the cell-based KG1a FACS assay.
Functional release activity of purified 561D peptide at pH 4 and 6 was tested.
Functional release activity of purified 561C and 561D peptides at pH 4, 5, 6, 7, 8, and 9 was tested.
Functional release activity of crude 561A,B,C,D, M, P, Q, CDR2H, CDR2L, CDR3H, CDR3L, 34B, 34C,34D,34E and 34F peptides adjusted to pH 7 and pH unadjusted (^~ pH3.8-4.3) was tested.

anti-CD34 antibody, 9069 = assay: KG1a cell FACS assay: release by peptides of 9069 antibody bound to cells; assay type: cell-based, mouse
Description: These experiments were performed following a similar procedure to the binding experiments except that the anti-CD34 antibody, 9069, was incubated with KG1a cells first, followed by addition of peptide. The experimental outline is schematically shown below:
Anti-CD34 antibody, 9069 (0.1 microgram) was incubated with KG1a cells (10^6) for 30 minutes at room temperature (about 22° C.). Molar excesses of 10^5 to 10^6 times the amount of peptide to antibody were tested for the ability to displace the prebound antibody. Peptides were incubated with the antibody-cell complexes for 30 minutes at room temperature (approximately 22° C.). Remaining bound antibody was detected using the FITC-goat anti-mouse IgG reagent described in Example 3.
Analysis of the variant peptide, 9069Q2, was done in parallel with the 9069N peptide. This analysis provides quality control information on reagents including the antibody, 9069, and the cells, KG1a. FACScan assays included a negative control of KG1a cells alone and positive control samples of KG1a cells with the 9069 antibody bound and detected with a secondary antibody, goat-anti-mouse IgG-FITC.

9069 antibody = assay: Stem cell selection with 9069 antibody and sheep-anti-mouse beads, release by peptide or chymopapain; assay type: cell-based; conditions: chymopapain release
[3] = tested on: positively selected CD34+ cells; assay: Culture of positively selected CD34+ cells with cytokines for 12 days; assay type: cell-based, human; conditions: released cells of first experiment
Description: The purity of the positively selected CD34+ cells was greater than 90% for both the chymopapain and peptide released cells. In a first experiment, the peptide release method yielded 14×10^6 cells, while the chymopapain release method yielded 20×10^6 cells. In a second experiment, the peptide release method yielded 19×10^6 cells, while the chymopapain release method yielded 22×10^6 cells. The positively selected CD34+ cells from the first experiment were grown in culture with cytokines for 12 days.

CD34+ cells = assay: CD34+ cell isolation from mobilized peripheral blood on automated cell separation apparatus; assay type: cell-based, human; conditions: 25 mg of peptide 9069N or chymopapain control
Description: CD34+ cells were also isolated from human mobilized peripheral blood using the automated cell separation apparatus of co-pending U.S. patent application Ser. No. 08/212,479, and the method essentially as described in co-pending U.S. patent application Ser. No. 08/212,616. Both Ser. No. 08/212,479 and Ser. No. 08/212,616 are herein expressly incorporated by reference. Chymopapain was used as the control releasing agent, and 25 mg of the peptide 9069N (Table 11) was used as the test releasing agent.

[4] = Solubilization of peptides in DPBS plus 1% HSA; assay type: physicochemical; conditions: Dulbecco's phosphate buffered saline (DPBS) plus 1% HSA
Description: 9079A-G peptides were solubilized in Dulbecco's phosphate buffered saline (DPBS) plus 1% HSA. The 9079A-G peptides were tested in the FACScan assay using 10 6 KG1a cells bound with 0.05 ug of the 9079 antibody.

[5] = Table 7, mobilized peripheral blood (5.86 % CD34)
[6] = Table 8, mobilized peripheral blood (1.05 % CD34)
[7] = Table 9, bone marrow sample (3.66 % CD34)
[8] = Table 10, mobilized peripheral blood (0.68 % CD34)

Molecule: [Cl-].[Cl-].[Mg+2] [magnesium chlordie, magnesium chloride]
- enhancement of peptide mediated release of CD34+ selected cells (561 antibody [1]): Less dramatic results

Molecule: CC(=O)O [sodium acetate]
- enhancement of peptide mediated release of CD34+ selected cells (561 antibody [1]): significant activity as an enhancement reagent

Molecule: A C K W C R (ACKWCR) [561M]
- release of 561 antibody prebound to KG1a or tHL60 cells (561 antibody [2]; KG1a or tHL60 cells): able to release 561 antibody prebound to KG1a or tHL60 cells
- functional release activity (561 antibody [2]; pH 7): none of these peptides showed release activity
- functional release activity (561 antibody [2]; pH unadjusted (around pH 3.8-4.3)): showed functional release activity
- release activity (561 antibody [2]; low pH (~4)): showed significant release activity
- release activity (561 antibody [2]; pH 6 or pH 7): did not show release activity

Molecule: ADGA-NGGYFP-GAKD [9069H']
- Competition % (anti-CD34 antibody, 9069; Table 11, 9069 prebound to KG1a cells): 75%
- release activity (anti-CD34 antibody, 9069; Table 13, yes/no): yes

Molecule: Chymopapain
- % CD34 CELLS Negative Fraction (9069 antibody; [5]): 2.5%
- % CD34 CELLS Positive Fraction (9069 antibody; [5]): 94%
- % Capture (9069 antibody; [5]): 62%
- % Yield (9069 antibody; [5]): 65.9%
- % CD34 CELLS Negative Fraction (9069 antibody; [6]): 0.16%
- % CD34 CELLS Positive Fraction (9069 antibody; [6]): 90.1%
- % Capture (9069 antibody; [6]): 86.9%
- % Yield (9069 antibody; [6]): 73.4%
- % CD34 CELLS Negative Fraction (9069 antibody; [7]): 0.34%
- % CD34 CELLS Positive Fraction (9069 antibody; [7]): 92.1%
- % Capture (9069 antibody; [7]): 91.8%
- % Yield (9069 antibody; [7]): 79.9%
- % CD34 CELLS Negative Fraction (9069 antibody; [8]): 0.12%
- % CD34 CELLS Positive Fraction (9069 antibody; [8]): 79.73%
- % Capture (9069 antibody; [8]): 86.7%
- % Yield (9069 antibody; [8]): 68%
- expansion in cell number [3]: 68 fold
- cells yielded by release method (CD34+ cells; first experiment): 20×10^6 cells
- purity of the positively selected CD34+ cells (CD34+ cells; mobilized peripheral blood): greater than 90%
- cells yielded by release method (CD34+ cells; second experiment): 22×10^6 cells

Molecule: IQEFGVKD [9079F, IQEFGV-KD]
- solubility [4]: solubilized

Molecule: RSFYYRD [9079E, RSFYYR-D]
- solubility [4]: insoluble

Results, then the molecule that gave them:

- solubility [4]: solubilized
Molecule: KDVYSLWPKD [9079H, KD-VYSLWP-KD]

- solubility [4]: solubilized
Molecule: NLQGEFKD [9079D, NLQGEF-KD]

- solubility [4]: solubilized
Molecule: PGSPLGKD [9079A, PGSPLG-KD]

- solubility [4]: solubilized
Molecule: QYTQPKD [9079C, QYTQPK-D]

- solubility [4]: solubilized
Molecule: YSRLGFKD [9079B, YSRLGF-KD]
